# How the values were obtained:
# [1] = tested on: ES-derived cardiomyocytes; assay: Isoproterenol effect on growth of ES-derived cardiomyocytes co-expressing p193dn and p53dn; format: cell-based; conditions: cells with MHC-p193dn and MHC-p53dn, isoproterenol 1 μM mg/ml for 58 days, vs. absence
# Excerpt: It follows then that if the p193 and p53 pathways are blocked, hypertrophic stimuli might result in direct cell cycle activity. To test this, undifferentiated ES cells were transfected with the MHC-neor/pGK-hygror transgene in combination with both the MHC-p193dn and MHC-p53dn transgenes. Transfected cells were enriched by virtue of their resistance to hygromycin, and then induced to differentiate. The ES-derived cardiomyocytes were then enriched by virtue of their resistance to G418. Cardiomyocyte growth was then compared in these cultures in the presence vs. absence of exogenous isoproterenol (1 μM mg/ml) for 58 days.
# SV40 T-Ag = molecular target: T1, SV40 T-Ag (Simian virus 40, UniProt P03070); assay: p193/T-Ag binding by immune precipitation; conditions: radiolabeled in vitro translated p193 mixed with recombinant T-Ag
# T1 construct: construct designated CMV-T-Ag; expressed in transfected cells; host or cells: NIH-3T3
# T1 sequence (Q8VE73 whole entry): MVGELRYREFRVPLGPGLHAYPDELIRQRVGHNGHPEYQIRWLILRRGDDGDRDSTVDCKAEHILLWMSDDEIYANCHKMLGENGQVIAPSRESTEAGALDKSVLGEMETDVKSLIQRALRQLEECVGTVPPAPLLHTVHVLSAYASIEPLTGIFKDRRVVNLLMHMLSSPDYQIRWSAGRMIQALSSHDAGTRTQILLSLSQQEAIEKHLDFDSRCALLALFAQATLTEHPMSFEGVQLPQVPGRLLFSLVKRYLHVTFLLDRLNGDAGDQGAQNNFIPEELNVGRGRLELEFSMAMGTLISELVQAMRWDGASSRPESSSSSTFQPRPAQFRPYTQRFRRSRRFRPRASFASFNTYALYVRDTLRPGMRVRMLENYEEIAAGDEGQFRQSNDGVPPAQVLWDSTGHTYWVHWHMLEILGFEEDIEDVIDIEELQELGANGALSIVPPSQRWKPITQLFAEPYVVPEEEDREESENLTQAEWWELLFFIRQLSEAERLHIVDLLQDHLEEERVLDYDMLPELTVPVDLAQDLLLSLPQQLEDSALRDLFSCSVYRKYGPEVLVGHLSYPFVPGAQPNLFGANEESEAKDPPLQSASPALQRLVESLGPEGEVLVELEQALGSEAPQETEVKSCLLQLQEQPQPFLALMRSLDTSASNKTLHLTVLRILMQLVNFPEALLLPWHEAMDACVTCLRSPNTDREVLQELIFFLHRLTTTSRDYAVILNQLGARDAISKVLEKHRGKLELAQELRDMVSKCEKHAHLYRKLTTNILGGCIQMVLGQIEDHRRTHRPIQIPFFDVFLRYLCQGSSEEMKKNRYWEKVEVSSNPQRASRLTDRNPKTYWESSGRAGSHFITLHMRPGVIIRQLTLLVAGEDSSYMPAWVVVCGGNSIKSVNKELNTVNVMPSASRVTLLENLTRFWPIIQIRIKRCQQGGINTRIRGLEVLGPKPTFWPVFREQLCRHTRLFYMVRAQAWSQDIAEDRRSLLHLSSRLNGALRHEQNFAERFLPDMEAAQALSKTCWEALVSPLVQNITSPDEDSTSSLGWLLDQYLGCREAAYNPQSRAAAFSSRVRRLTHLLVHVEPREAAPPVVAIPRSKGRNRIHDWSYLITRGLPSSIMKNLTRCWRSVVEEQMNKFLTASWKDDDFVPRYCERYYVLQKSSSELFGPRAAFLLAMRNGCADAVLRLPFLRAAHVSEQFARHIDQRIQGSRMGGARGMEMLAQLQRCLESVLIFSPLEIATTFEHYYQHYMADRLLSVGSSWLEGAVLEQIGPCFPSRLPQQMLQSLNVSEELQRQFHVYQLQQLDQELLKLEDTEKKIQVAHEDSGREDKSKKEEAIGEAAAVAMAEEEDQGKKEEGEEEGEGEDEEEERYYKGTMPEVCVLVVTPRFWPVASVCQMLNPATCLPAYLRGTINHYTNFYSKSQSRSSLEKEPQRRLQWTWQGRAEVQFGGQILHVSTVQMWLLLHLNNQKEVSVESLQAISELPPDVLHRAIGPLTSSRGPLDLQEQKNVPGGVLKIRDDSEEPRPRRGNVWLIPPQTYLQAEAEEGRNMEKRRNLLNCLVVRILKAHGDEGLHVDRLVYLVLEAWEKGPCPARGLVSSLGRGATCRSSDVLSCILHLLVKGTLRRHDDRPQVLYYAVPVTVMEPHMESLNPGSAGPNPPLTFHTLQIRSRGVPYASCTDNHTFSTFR
# T1 sequence (P03070 whole entry): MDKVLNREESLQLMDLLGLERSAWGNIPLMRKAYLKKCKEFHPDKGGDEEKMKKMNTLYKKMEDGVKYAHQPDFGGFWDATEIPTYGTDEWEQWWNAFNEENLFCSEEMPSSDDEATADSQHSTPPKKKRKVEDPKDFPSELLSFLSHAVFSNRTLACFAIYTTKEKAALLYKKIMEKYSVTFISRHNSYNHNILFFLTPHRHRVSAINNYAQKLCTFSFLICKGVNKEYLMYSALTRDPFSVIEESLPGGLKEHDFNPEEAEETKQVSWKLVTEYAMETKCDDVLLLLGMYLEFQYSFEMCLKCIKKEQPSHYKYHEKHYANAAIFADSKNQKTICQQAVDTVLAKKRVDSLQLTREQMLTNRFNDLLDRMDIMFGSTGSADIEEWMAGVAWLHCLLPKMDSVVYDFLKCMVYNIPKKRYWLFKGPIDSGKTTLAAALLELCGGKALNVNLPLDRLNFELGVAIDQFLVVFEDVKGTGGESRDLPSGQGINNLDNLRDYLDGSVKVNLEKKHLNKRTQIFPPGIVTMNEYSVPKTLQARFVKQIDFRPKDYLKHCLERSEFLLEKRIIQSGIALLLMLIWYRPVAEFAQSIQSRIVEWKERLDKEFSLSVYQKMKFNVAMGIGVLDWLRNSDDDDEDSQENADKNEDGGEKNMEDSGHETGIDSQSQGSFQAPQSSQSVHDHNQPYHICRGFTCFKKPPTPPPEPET
# Experimental: A T-Ag cDNA was subcloned into pcDNA3.1 expression vector (which lacks the epitope tag; construct designated CMV-T-Ag). For IP/Western analyses, NIH-3T3 cells (ATCC, Rockville Md.) were co-transfected with […] and CMV-p193myc using the calcium phosphate approach (Sambrook, J., Fritsch, E. F., and Maniatis, T. (1989) Molecular cloning, Cold Spring Harbor Laboratory Press, Cold Spring Harbor, N.Y.). Protein (1 mg) prepared from the transfected cells was reacted with an anti-T-Ag (PAb419), an anti-myc (9E10, Santa Cruz Biotech.), or an IgG subtype-matched non-specific antibody (anti-GST, Pharmacia), and the resulting immune complexes were subjected to Western blot analysis. 100 μg of total protein from non-transfected and transfected cells were included as controls. The blots were probed with an anti-myc (9E10) or anti-T-Ag (PAb416) antibody, and signal was developed using the ECL method. […] Immune complex was then visualized via autoradiography (p193) or Western blotting (T-Ag) as described above.
Compound,cardiomyocyte colony size [1],binding of in vitro translated protein to recombinant T-Ag (IP) (SV40 T-Ag)
CC(C)NCC(O)c1ccc(O)c(O)c1 (centres unmarked) [isoproterenol],Markedly enhanced cardiomyocyte colony size,
"p193: apoptosis associated, T-Ag binding protein of 1689 amino acid residues (mouse, SEQ. I.D. NO. 2); here in vitro translated",,present in immune complex generated with anti-T-Ag antibody
